One experiment concerns the target mutant G2019S LRRK2 (Homo sapiens (Human), UniProt Q5S007, G2019S). Nature of the experiment: LRRK2 Lantha Screen kinase assay, mutant enzyme. The note with it: geometric mean of 2-5 determinations unless otherwise indicated (a: >=6 determinations; b: single determination). It is filed as biochemical.
In experiment [1] the target is GST-tagged truncated LRRK2 (Homo sapiens (Human), UniProt Q5S007). Nature of the experiment: LRRK2 Lantha Screen kinase assay. Format: biochemical. The note with it: geometric mean of 2-5 determinations unless otherwise indicated (a: >=6 determinations; b: single determination); read-out: LRRK2 WT IC50.

Molecules are shown by their SMILES.

Chain of mutant G2019S LRRK2 (Q5S007 970-2527 G2019S): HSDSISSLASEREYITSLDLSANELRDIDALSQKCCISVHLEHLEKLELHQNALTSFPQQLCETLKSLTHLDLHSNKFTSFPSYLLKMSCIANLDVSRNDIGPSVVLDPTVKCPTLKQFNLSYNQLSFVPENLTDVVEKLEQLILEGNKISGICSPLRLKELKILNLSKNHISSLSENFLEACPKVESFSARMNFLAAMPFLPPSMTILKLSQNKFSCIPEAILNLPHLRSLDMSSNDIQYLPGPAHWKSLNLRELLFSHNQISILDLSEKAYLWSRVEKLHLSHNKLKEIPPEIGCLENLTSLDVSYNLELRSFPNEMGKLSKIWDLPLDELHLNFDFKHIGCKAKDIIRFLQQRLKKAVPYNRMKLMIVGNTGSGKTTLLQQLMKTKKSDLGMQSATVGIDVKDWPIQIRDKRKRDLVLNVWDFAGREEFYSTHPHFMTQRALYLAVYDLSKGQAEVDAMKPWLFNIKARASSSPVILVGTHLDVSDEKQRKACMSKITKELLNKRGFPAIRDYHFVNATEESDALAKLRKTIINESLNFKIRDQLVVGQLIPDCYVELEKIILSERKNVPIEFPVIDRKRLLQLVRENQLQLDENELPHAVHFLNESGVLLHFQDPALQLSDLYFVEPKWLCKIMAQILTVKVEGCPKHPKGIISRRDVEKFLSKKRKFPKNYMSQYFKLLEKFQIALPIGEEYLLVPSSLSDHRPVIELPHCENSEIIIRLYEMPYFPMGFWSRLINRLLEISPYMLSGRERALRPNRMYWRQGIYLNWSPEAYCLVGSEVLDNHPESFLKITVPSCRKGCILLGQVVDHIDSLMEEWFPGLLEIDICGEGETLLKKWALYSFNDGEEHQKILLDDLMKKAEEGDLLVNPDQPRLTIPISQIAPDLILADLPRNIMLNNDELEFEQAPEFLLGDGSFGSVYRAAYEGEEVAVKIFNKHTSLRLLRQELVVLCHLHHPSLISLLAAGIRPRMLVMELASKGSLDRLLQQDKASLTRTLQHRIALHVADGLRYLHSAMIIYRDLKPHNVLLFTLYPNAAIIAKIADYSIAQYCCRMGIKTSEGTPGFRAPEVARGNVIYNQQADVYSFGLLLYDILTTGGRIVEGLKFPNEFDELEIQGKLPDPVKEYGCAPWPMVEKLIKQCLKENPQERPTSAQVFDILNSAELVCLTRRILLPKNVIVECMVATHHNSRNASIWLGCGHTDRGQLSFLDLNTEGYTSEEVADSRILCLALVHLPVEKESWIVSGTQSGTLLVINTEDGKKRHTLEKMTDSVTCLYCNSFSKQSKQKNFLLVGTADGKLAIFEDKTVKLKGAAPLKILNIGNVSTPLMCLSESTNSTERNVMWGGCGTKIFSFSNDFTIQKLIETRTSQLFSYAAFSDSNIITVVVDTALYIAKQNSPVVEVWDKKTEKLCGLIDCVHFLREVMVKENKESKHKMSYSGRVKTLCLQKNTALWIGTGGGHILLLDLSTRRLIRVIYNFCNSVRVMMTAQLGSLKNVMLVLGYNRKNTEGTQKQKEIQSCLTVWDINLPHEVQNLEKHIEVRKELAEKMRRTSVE
Chain of GST-tagged truncated LRRK2 (Q5S007 970-2527): as the sequence (Q5S007 970-2527 G2019S) above, with S1050G counted along it

Turning to `Cc1c(C#N)cccc1-c1c[nH]c2ncnc(N3CCOCC3)c12` [Example 203, 2-methyl-3-[4-(morpholin-4-yl)-7H-pyrrolo[2,3-d]pyrimidin-5-yl]benzonitrile], the IC50 on mutant G2019S LRRK2 amounted to 90.1 nM; in experiment [1] it was 13.2 nM.
Consider `O=c1cc(-c2c[nH]c3ncnc(N4CCOCC4)c23)cc[nH]1` [Example 204, 4-[4-(morpholin-4-yl)-7H-pyrrolo[2,3-d]pyrimidin-5-yl]pyridin-2(1H)-one], for which the half-inhibitory concentration (IC50) came to 32.7 nM against mutant G2019S LRRK2 and 11.7 nM in experiment [1].
Take `c1nc(N2CCOCC2)c2c(-c3cnc4sccn34)c[nH]c2n1` [Example 205, 5-(imidazo[2,1-b][1,3]thiazol-5-yl)-4-(morpholin-4-yl)-7H-pyrrolo[2,3-d]pyrimidine]: the IC50 against mutant G2019S LRRK2 amounted to 60.5 nM; in experiment [1] it was 15.8 nM.
`N#Cc1cccc(-c2c[nH]c3ncnc(N4CC5COCC5C4)c23)c1` [Example 207, rel-3-{4-[(3aS,6aS)-tetrahydro-1H-furo[3,4-c]pyrrol-5(3H)-yl]-7H-pyrrolo[2,3-d]pyrimidin-5-yl}benzonitrile]: the 50% inhibitory concentration (IC50) came to 687 nM on mutant G2019S LRRK2 and 223 nM in experiment [1].
In the case of `N#Cc1cccc(-c2c[nH]c3ncnc(N4CCOC(C#N)C4)c23)c1` (centres unmarked) [Example 209, 4-[5-(3-cyanophenyl)-7H-pyrrolo[2,3-d]pyrimidin-4-yl]morpholine-2-carbonitrile], the IC50 on mutant G2019S LRRK2 stood at 336 nM; in experiment [1], 42.2 nM.
For `CC1(C)CN(c2ncnc3[nH]cc(-c4cccc(C#N)c4)c23)CCO1` [Example 210, 3-[4-(2,2-dimethylmorpholin-4-yl)-7H-pyrrolo[2,3-d]pyrimidin-5-yl]benzonitrile], the figures for the concentration for half-maximal inhibition (IC50) (against mutant G2019S LRRK2; in experiment [1]) were 304 nM and 35.2 nM, respectively.
Turning to `N#Cc1ccc(-c2c[nH]c3ncnc(N4CCOCC4)c23)s1` [Example 211, 5-[4-(morpholin-4-yl)-7H-pyrrolo[2,3-d]pyrimidin-5-yl]thiophene-2-carbonitrile], the IC50 worked out at 118 nM on mutant G2019S LRRK2 and 21.9 nM in experiment [1].
For `c1cnn2c(-c3c[nH]c4ncnc(N5CCOCC5)c34)cnc2c1` [Example 212, 5-(imidazo[1,2-b]pyridazin-3-yl)-4-(morpholin-4-yl)-7H-pyrrolo[2,3-d]pyrimidine], the IC50 on mutant G2019S LRRK2 is 12.3 nM; in experiment [1] it was 6.26 nM.
As for `NC(=O)c1cccc(-c2c[nH]c3ncnc(N4CCOCC4)c23)n1` [Example 215, 6-[4-(morpholin-4-yl)-7H-pyrrolo[2,3-d]pyrimidin-5-yl]pyridine-2-carboxamide], the half-maximal inhibitory concentration (IC50) against mutant G2019S LRRK2 was 79.3 nM; in experiment [1], 30.6 nM.
Take `c1cnc2c(-c3c[nH]c4ncnc(N5CCOCC5)c34)cnn2c1` [Example 216, 4-(morpholin-4-yl)-5-(pyrazolo[1,5-a]pyrimidin-3-yl)-7H-pyrrolo[2,3-d]pyrimidine]: the IC50 came out at 119 nM against mutant G2019S LRRK2 and 35.6 nM in experiment [1].
The like results for `Cc1nc2sccn2c1-c1c[nH]c2ncnc(N3CCOCC3)c12` [Example 218, 5-(6-methylimidazo[2,1-b][1,3]thiazol-5-yl)-4-(morpholin-4-yl)-7H-pyrrolo[2,3-d]pyrimidine] were, in that order, 135 nM and 37.4 nM.
Take `N#Cc1cccc(-c2c[nH]c3ncnc(N4CCOC(c5ccno5)C4)c23)c1` (centres unmarked) [Example 219, 3-{4-[2-(1,2-oxazol-5-yl)morpholin-4-yl]-7H-pyrrolo[2,3-d]pyrimidin-5-yl}benzonitrile]: the IC50 against mutant G2019S LRRK2 turned out to be 234 nM; in experiment [1] it was 37 nM.
With `Cn1cc(-c2c[nH]c3ncnc(N4CCOCC4)c23)nc1C#N` [Example 220, 1-methyl-4-[4-(morpholin-4-yl)-7H-pyrrolo[2,3-d]pyrimidin-5-yl]-1H-imidazole-2-carbonitrile], the IC50 on mutant G2019S LRRK2 was 14.7 nM; in experiment [1], 7.47 nM.
